Where two headings read alike, the source gives them in different places.
Key:
[1] = system: Rat basophilic leukemia (RBL) cells; experiment: LTB4 secretion assay in RBL (rat basophilic leukemia cells); format: cell-based; conditions: Rattus norvegicus
How it was run: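 Cells seeded 2×10^4/well the day before, then pre-incubated 15 min at 37 °C in EMEM/0.5% FBS with compound (5 nM to 100 uM). Stimulation with 2.5 uM arachidonic acid plus 5 uM A23187 (final) for 10 min at 37 °C; LTB4 in supernatant quantified by EIA.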

[2] = system: Rat whole blood (RWB); experiment: LTB4 secretion assay in RWB (rat whole blood); format: cell-based; conditions: Rattus norvegicus
How it was run: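 Heparinized blood from male Sprague Dawley rats (6-9 weeks) diluted 1:1 in RPMI, pre-incubated 15 min at 37 °C with compound (2.5 nM to 50 uM). Stimulated with 10 uM calcium ionophore A23187 for 10 min at 37 °C, stopped with ice-cold PBS; LTB4 in supernatant quantified by EIA.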

[3] = target: T1, human 5-LOX (Homo sapiens, UniProt P09917); experiment: 5-LOX enzyme activity, fluorescence method (5-HPETE, H2DCFDA); format: biochemical
T1 construct: purchased Cayman 60402; host or cells: insect cells (lysate)
T1 sequence (P09917 1-674): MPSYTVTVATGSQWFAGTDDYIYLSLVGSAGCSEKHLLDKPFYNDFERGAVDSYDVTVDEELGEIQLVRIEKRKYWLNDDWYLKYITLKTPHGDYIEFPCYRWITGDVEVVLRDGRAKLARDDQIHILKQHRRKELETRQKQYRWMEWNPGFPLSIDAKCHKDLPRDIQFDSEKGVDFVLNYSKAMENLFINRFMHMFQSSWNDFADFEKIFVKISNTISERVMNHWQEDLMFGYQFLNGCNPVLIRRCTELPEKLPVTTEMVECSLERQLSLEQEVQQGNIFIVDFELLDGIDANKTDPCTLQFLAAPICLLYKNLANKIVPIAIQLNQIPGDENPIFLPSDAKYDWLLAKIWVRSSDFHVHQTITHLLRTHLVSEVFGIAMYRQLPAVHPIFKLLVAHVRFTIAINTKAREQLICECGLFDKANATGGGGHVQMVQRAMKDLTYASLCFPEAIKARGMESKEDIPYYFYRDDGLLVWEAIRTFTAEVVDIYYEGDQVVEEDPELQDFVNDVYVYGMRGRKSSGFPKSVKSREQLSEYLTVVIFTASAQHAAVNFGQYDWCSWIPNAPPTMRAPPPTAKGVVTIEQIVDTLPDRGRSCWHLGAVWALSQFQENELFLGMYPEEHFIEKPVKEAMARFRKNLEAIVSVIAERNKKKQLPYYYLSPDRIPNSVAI
How it was run: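 Compound (0.5 nM to 10 uM) pre-incubated 5 min with enzyme; reaction started with ATP (100 uM final) and arachidonic acid (3 uM final). All steps at room temperature, fluorescence read-out.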

[4] = system: HeLa S3 cells; experiment: PGE2 inhibition assay (HTRF) in TNF-α stimulated HeLa S3 cells; format: cell-based; conditions: Homo sapiens; PGE2, 10 uM compound, HeLa S3 stimulated with TNF-α
Procedure: Human epitheloid cervix carcinoma HeLa S3 cells (2×10^6cells/ml) were seeded with modified F-12K buffer medium pH 7.4 in tissue culture plate and incubated for overnight at 37° C. and 5% CO2. Then medium was changed into new medium contained 10 uM testing compounds or 0.1% DMSO and incubated overnight. After incubation, cells were stimulated with 30 nM TNF-α (Tumor necrosis factor-α) for 16 h. For determination of PGE2, the supernatant was measured by PGE2 HTRF (Homogeneous Time Resolved Fluorescence) assay kit Inhibition of PGE2 by compounds is calculated as a percentage of activity in the presence of drug versus the activity in the stimulator TNF-α.

CC(C)(C)Oc1ccc(CNc2nc3ccc(N)cc3[nH]2)cc1 [Compound 121]
EC50 ([1]; RBL): < 10 µM | EC50 [2]: > 20 µM | melting point: > 59.7 °C | IC50 ([3]; read-out: 5-LO (IC50)): < 1 µM

Cn1c(NCc2ccc(Oc3nc4ccc(Cl)cc4n3C)cc2)nc2ccc(NC3COC3)cc21 [Compound 423]
EC50 ([1]; RBL): < 10 µM | melting point: 138.9 to 140.8 °C | IC50 ([3]; read-out: 5-LO (IC50)): < 1 µM

Nc1ccc2[nH]c(N3CCC(Oc4ccc(F)cc4)CC3)nc2c1 [Compound 34]
EC50 ([1]; RBL): 10 to 20 µM | melting point: 193.3 to 205 °C | IC50 ([3]; read-out: 5-LO (IC50)): < 1 µM

Cn1c(NCCOc2ccc(OC(F)(F)F)cc2)nc2cc(N)ccc21 [Compound 53]
EC50 ([1]; RBL): < 10 µM | EC50 [2]: < 10 µM | inhibition at 10 µM [4]: > 70% | IC50 ([3]; read-out: 5-LO (IC50)): < 1 µM

Nc1ccc2c(c1)nc(N)n2CCc1ccc(F)cc1 [Compound 42]
EC50 ([1]; RBL): 10 to 20 µM | melting point: 178.2 to 179.6 °C | IC50 ([3]; read-out: 5-LO (IC50)): 1 to 10 µM

Nc1cc2nc(NCc3ccc(Oc4ccc(Cl)cc4)cc3)[nH]c2cc1Cl [Compound 147]
EC50 ([1]; RBL): < 10 µM | EC50 [2]: < 10 µM | melting point: 191.4 to 193.5 °C | IC50 ([3]; read-out: 5-LO (IC50)): < 1 µM

Nc1ccc2[nH]c(NCc3ccc(Oc4ccc(Cl)cc4)cc3)nc2c1 [Compound 86]
EC50 ([1]; RBL): < 10 µM | EC50 [2]: < 10 µM | inhibition at 10 µM [4]: > 70% | IC50 ([3]; read-out: 5-LO (IC50)): < 1 µM

CC(Cc1ccc(Cl)cc1Cl)Nc1nc2cc(N)ccc2[nH]1 (stereo not drawn) [Compound 107]
EC50 ([1]; RBL): < 10 µM | EC50 [2]: > 20 µM | melting point: > 200.9 °C | IC50 ([3]; read-out: 5-LO (IC50)): < 1 µM

Nc1ccc2nc(NC3CCCC3)n(CCOc3ccc(OC(F)(F)F)cc3)c2c1 [Compound 120]
EC50 ([1]; RBL): < 10 µM | EC50 [2]: < 10 µM | melting point: 200.7 to 201.3 °C | IC50 ([3]; read-out: 5-LO (IC50)): < 1 µM

O=C(Nc1nc2cc(NCc3cnc[nH]3)ccc2[nH]1)c1ccc(F)cc1 [Compound 27]
EC50 ([1]; RBL): > 20 µM | melting point: > 142.9 °C (dec.) | IC50 ([3]; read-out: 5-LO (IC50)): 1 to 10 µM

Nc1ccc2nc(NCc3ccc(Cl)cn3)[nH]c2c1 [Compound 158]
EC50 [1]: > 20 µM | melting point: 101.8 to 104 °C | IC50 ([3]; 5-LO (IC50, uM)): < 1 µM

Nc1ccc2[nH]c(NCc3ccc(N4CCC(c5ccc(Cl)cc5)CC4)cc3)nc2c1 [Compound 115]
EC50 ([1]; RBL): > 20 µM | melting point: > 220 °C | IC50 ([3]; read-out: 5-LO (IC50)): < 1 µM

Cn1c(NCc2ccc(Oc3ccc4c(Cl)cccc4n3)cc2)nc2ccc(NC3COC3)cc21 [Compound 425]
EC50 ([1]; RBL): < 10 µM | melting point: 102.3 to 107.3 °C | IC50 ([3]; read-out: 5-LO (IC50)): < 1 µM

CC(C)(Nc1ccc2[nH]c(NCc3ccc(Oc4ccc(Cl)cc4)cc3)nc2c1)C(N)=O [Compound 118]
EC50 ([1]; RBL): < 10 µM | EC50 [2]: > 20 µM | melting point: > 113.2 °C | IC50 ([3]; read-out: 5-LO (IC50)): < 1 µM

Cc1cnn(-c2nc3cc(N4CCN(c5ccc(F)cc5)CC4)ccc3[nH]2)c1 [Compound 25]
melting point: > 220 °C | IC50 ([3]; read-out: 5-LO (IC50)): > 10 µM

Nc1ccc2[nH]c(NCc3ccc(N4CCN(c5ccc(OC(F)(F)F)cc5)CC4)cc3)nc2c1 [Compound 114]
EC50 ([1]; RBL): 10 to 20 µM | EC50 [2]: > 20 µM | melting point: > 220 °C | IC50 ([3]; read-out: 5-LO (IC50)): < 1 µM

Nc1ccc2[nH]c(NCc3ccc(Oc4cccc(Cl)c4)cc3)nc2c1 [Compound 122]
EC50 ([1]; RBL): < 10 µM | EC50 [2]: < 10 µM | melting point: > 160.8 °C | IC50 ([3]; read-out: 5-LO (IC50)): < 1 µM

c1ccc(Oc2ccc(CNc3nc4cc(NC5CCOC5)ccc4[nH]3)cc2)cc1 (stereo not drawn) [Compound 119]
EC50 ([1]; RBL): < 10 µM | EC50 [2]: < 10 µM | melting point: > 54.3 °C | IC50 ([3]; read-out: 5-LO (IC50)): < 1 µM

Nc1ccc2[nH]c(NCc3ccc(Oc4ccc(F)c(Cl)c4)cc3)nc2c1 [Compound 102]
EC50 ([1]; RBL): < 10 µM | EC50 [2]: < 10 µM | melting point: 58.4 to 66.6 °C | IC50 ([3]; read-out: 5-LO (IC50)): < 1 µM

CC(C)(Nc1ccc2[nH]c(NCc3ccc(Oc4ccccc4)cc3)nc2c1)C(N)=O [Compound 109]
EC50 ([1]; RBL): < 10 µM | EC50 [2]: < 10 µM | melting point: > 173 °C | IC50 ([3]; read-out: 5-LO (IC50)): < 1 µM

CC(C)(C)c1ccc(CNc2nc3ccc(N)cc3[nH]2)cc1 [Compound 116]
EC50 ([1]; RBL): < 10 µM | EC50 [2]: 10 to 20 µM | melting point: > 130.8 °C | IC50 ([3]; read-out: 5-LO (IC50)): < 1 µM

— US11447486B2, “2-amino-benzimidazole derivatives and their use as 5-lipoxygenase and/or prostaglandin E synthase inhibitors” (INSTITUT PASTEUR KOREA, priority 2014, dated 2022)
